Data published in article PMC4890880 (ACS infectious diseases, 2016).
Like-named read-outs stand apart in the source and are kept apart here.

Columns and labels:
[1] = system: Plasmodium berghei (Pb-Luc) exoerythrocytic-stage parasites; details: for IC50: read-out: PbLuc_IC50
[2] = system: HepG2-A16-CD81EGFP cells; details: for IC50: read-out: Tox_IC50, HepG2 cytotoxicity
[3] = 2nd round, maximal inhibition in dose series
[4] = first series of columns, fraction of control
[5] = sheet 2nd round, Pb-Luc exoerythrocytic stage, 10-point dose response, top concentration 10
[6] = second series of columns (replicate), fraction of control
[7] = sheet 2nd round, maximal inhibition in dose response

SMILES: COc1ccc(NC(=O)N(C)C[C@H]2Oc3ccc(NC(=O)Nc4cccc5ccccc45)cc3CC(=O)N([C@@H](C)CO)C[C@@H]2C)cc1 [BRD-K15104969-001-01-5]
- PbLuc_max_inhibition (%) [1, 3]: 44%
- normalized signal at 0.000508053 (first series) ([1]; concentration 0.000508053, first replicate series, fraction of control): 0.969
- normalized signal at 0.000508053 (second series) ([1]; concentration 0.000508053, second replicate series, fraction of control): 0.7927
- normalized signal at 0.00152416 (first series) ([1]; concentration 0.00152416, first replicate series, fraction of control): 1.086
- normalized signal at 0.00152416 (second series) ([1]; concentration 0.00152416, second replicate series, fraction of control): 0.9921
- normalized signal at 0.00457247 (first series) ([1]; concentration 0.00457247, first replicate series, fraction of control): 0.8915
- normalized signal at 0.00457247 (second series) ([1]; concentration 0.00457247, second replicate series, fraction of control): 0.8364
- normalized signal at 0.0137174 (first series) ([1]; concentration 0.0137174, first replicate series, fraction of control): 1.267
- normalized signal at 0.0137174 (second series) ([1]; concentration 0.0137174, second replicate series, fraction of control): 0.9174
- normalized signal at 0.0411523 (first series) ([1]; concentration 0.0411523, first replicate series, fraction of control): 0.9934
- normalized signal at 0.0411523 (second series) ([1]; concentration 0.0411523, second replicate series, fraction of control): 0.8265
- normalized signal at 0.123457 (first series) ([1]; concentration 0.123457, first replicate series, fraction of control): 1.28
- normalized signal at 0.123457 (second series) ([1]; concentration 0.123457, second replicate series, fraction of control): 0.8011
- normalized signal at 0.37037 (first series) ([1]; concentration 0.37037, first replicate series, fraction of control): 0.9047
- normalized signal at 0.37037 (second series) ([1]; concentration 0.37037, second replicate series, fraction of control): 0.8073
- normalized signal at 1.11111 (first series) ([1]; concentration 1.11111, first replicate series, fraction of control): 0.8441
- normalized signal at 1.11111 (second series) ([1]; concentration 1.11111, second replicate series, fraction of control): 0.8236
- normalized signal at 3.33333 (first series) ([1]; concentration 3.33333, first replicate series, fraction of control): 0.7436
- normalized signal at 3.33333 (second series) ([1]; concentration 3.33333, second replicate series, fraction of control): 1.005
- normalized signal at 10 (first series) ([1]; concentration 10, first replicate series, fraction of control): 0.5627
- normalized signal at 10 (second series) ([1]; concentration 10, second replicate series, fraction of control): 0.5558
- IC50 ([1]; 2nd round, Broad DOS compounds, unit not printed (dose series head 10 to 0.000508053)): > 10 µM
- Tox_max_inhibition (%) [2, 3]: 14%
- IC50 ([2]; 2nd round, unit inferred): > 10 µM

SMILES: Cc1noc(C)c1S(=O)(=O)N(C)C[C@@H]1OCCCC[C@@H](C)Oc2ccc(N(C)C)cc2C(=O)N([C@@H](C)CO)C[C@H]1C [BRD-K31367750-001-01-1]
- normalized signal at concentration 0.000508053 [1, 4]: 1.082
- normalized signal at concentration 0.00152416 [1, 4]: 1.078
- normalized signal at concentration 0.00457247 [1, 4]: 1.115
- normalized signal at concentration 0.0137174 [1, 4]: 1.059
- normalized signal at concentration 0.0411523 [1, 4]: 1.054
- normalized signal at concentration 0.123457 [1, 4]: 1.1
- normalized signal at concentration 0.37037 [1, 4]: 1.064
- normalized signal at concentration 1.11111 [1, 4]: 0.9576
- normalized signal at concentration 3.33333 [1, 4]: 1.005
- normalized signal at concentration 10 [1, 4]: 1.057
- IC50 [1, 5]: > 10 µM
- normalized signal at concentration 0.000508053 [1, 6]: 1.02
- normalized signal at concentration 0.00152416 [1, 6]: 0.9419
- normalized signal at concentration 0.00457247 [1, 6]: 0.9058
- normalized signal at concentration 0.0137174 [1, 6]: 0.8746
- normalized signal at concentration 0.0411523 [1, 6]: 0.9045
- normalized signal at concentration 0.123457 [1, 6]: 0.9742
- normalized signal at concentration 0.37037 [1, 6]: 0.91
- normalized signal at concentration 1.11111 [1, 6]: 0.8518
- normalized signal at concentration 3.33333 [1, 6]: 0.8811
- normalized signal at concentration 10 [1, 6]: 0.9567
- PbLuc_max_inhibition (%) [1, 7]: 15%
- IC50 ([2]; sheet 2nd round): > 10 µM
- Tox_max_inhibition (%) [2, 7]: 10%

SMILES: C[C@@H]1CN([C@@H](C)CO)C(=O)c2ccccc2-c2ccccc2CO[C@@H]1CN(C)S(=O)(=O)Cc1ccccc1 [BRD-K06421369-001-01-0]
- normalized signal at concentration 0.000508053 [1, 4]: 1.055
- normalized signal at concentration 0.00152416 [1, 4]: 1.041
- normalized signal at concentration 0.00457247 [1, 4]: 0.8367
- normalized signal at concentration 0.0137174 [1, 4]: 0.8756
- normalized signal at concentration 0.0411523 [1, 4]: 0.8835
- normalized signal at concentration 0.123457 [1, 4]: 1.014
- normalized signal at concentration 0.37037 [1, 4]: 0.8794
- normalized signal at concentration 1.11111 [1, 4]: 0.8244
- normalized signal at concentration 3.33333 [1, 4]: 1.118
- normalized signal at concentration 10 [1, 4]: 0.9941
- IC50 [1, 5]: > 10 µM
- normalized signal at concentration 0.000508053 [1, 6]: 0.9052
- normalized signal at concentration 0.00152416 [1, 6]: 1.004
- normalized signal at concentration 0.00457247 [1, 6]: 1.069
- normalized signal at concentration 0.0137174 [1, 6]: 0.9457
- normalized signal at concentration 0.0411523 [1, 6]: 0.8932
- normalized signal at concentration 0.123457 [1, 6]: 1.033
- normalized signal at concentration 0.37037 [1, 6]: 1.094
- normalized signal at concentration 1.11111 [1, 6]: 1.104
- normalized signal at concentration 3.33333 [1, 6]: 1.032
- normalized signal at concentration 10 [1, 6]: 0.8304
- PbLuc_max_inhibition (%) [1, 7]: 18%
- IC50 ([2]; sheet 2nd round): > 10 µM
- Tox_max_inhibition (%) [2, 7]: 8.54%

SMILES: C[C@@H]1CN([C@@H](C)CO)C(=O)c2cccc(NC(=O)c3ccc(-c4nccs4)cc3)c2O[C@@H]1CN(C)C(=O)Nc1ccc(C(F)(F)F)cc1 [BRD-K43504903-001-01-1]
- normalised signal at concentration 0.000508053 (first series) ([1]; concentration 0.000508053, first series): 0.8756
- normalised signal at concentration 0.000508053 (second series) ([1]; concentration 0.000508053, second series): 0.7942
- normalised signal at concentration 0.00152416 (first series) ([1]; concentration 0.00152416, first series): 0.8514
- normalised signal at concentration 0.00152416 (second series) ([1]; concentration 0.00152416, second series): 0.7934
- normalised signal at concentration 0.00457247 (first series) ([1]; concentration 0.00457247, first series): 0.8815
- normalised signal at concentration 0.00457247 (second series) ([1]; concentration 0.00457247, second series): 0.6886
- normalised signal at concentration 0.0137174 (first series) ([1]; concentration 0.0137174, first series): 0.7217
- normalised signal at concentration 0.0137174 (second series) ([1]; concentration 0.0137174, second series): 0.708
- normalised signal at concentration 0.0411523 (first series) ([1]; concentration 0.0411523, first series): 0.6989
- normalised signal at concentration 0.0411523 (second series) ([1]; concentration 0.0411523, second series): 0.7835
- normalised signal at concentration 0.123457 (first series) ([1]; concentration 0.123457, first series): 0.7701
- normalised signal at concentration 0.123457 (second series) ([1]; concentration 0.123457, second series): 0.8493
- normalised signal at concentration 0.37037 (first series) ([1]; concentration 0.37037, first series): 0.9239
- normalised signal at concentration 0.37037 (second series) ([1]; concentration 0.37037, second series): 0.7292
- normalised signal at concentration 1.11111 (first series) ([1]; concentration 1.11111, first series): 0.7039
- normalised signal at concentration 1.11111 (second series) ([1]; concentration 1.11111, second series): 0.8779
- normalised signal at concentration 3.33333 (first series) ([1]; concentration 3.33333, first series): 0.8563
- normalised signal at concentration 3.33333 (second series) ([1]; concentration 3.33333, second series): 1.012
- normalised signal at concentration 10 (first series) ([1]; concentration 10, first series of dose columns): 0.4042
- normalised signal at concentration 10 (second series) ([1]; concentration 10, second series of dose columns): 0.5157
- IC50 ([1]; sheet "2nd round", Broad compounds, dose response top concentration 10): > 10 µM
- PbLuc_max_inhibition (%) ([1]; sheet "2nd round"): 60%
- IC50 ([2]; sheet "2nd round"): > 10 µM
- Tox_max_inhibition (%) ([2]; sheet "2nd round"): 21%
